Assay results taken from patent EP0455560A2, “Use of N-dichloroacetyl lysogangliosides for the selective modulation of the expression and function of CD4 determinants on the cell surface” (FIDIA S.p.A., priority 1990, dated 1991).

Columns and labels:
Type in all cases: cell-based
[1] = target: T1, CD₄ (Homo sapiens, UniProt P01730); assay: Percentage of CD4 still expressed in Molt 3 cells after incubation in the presence of fetal calf serum; set-up: percentage of CD₄ still expressed in the Molt 3 cells after incubation; endogenous in cells; host or cells: Molt 3 cells; details: for percentage of CD₄ still expressed in the Molt 3 cells: 60 minutes, 37°C, 84% without agent; for effect of serum concentration on the modulating action on the CD₄ receptor: conclusion in words from Table 3, FCS 1% to 5%
Experimental: Molt 3 cells (5x10⁶) were incubated with different concentrations of N-dichloroacetyl lyso GM₁ (from 1 µg/ml to 125 µg/ml) for 60 minutes at 37°C in the presence of different concentrations of fetal calf serum (FCS) (from 1% to 5%). After incubation the percentage of CD₄ expressed was shown by a specific Mab for CD₄ (T₄ Coulter Clone, Coulter Electronics, Hialeah, Florida, USA).
As a positive control, an experiment with the monosialoganglioside GM₁ was carried out under the same experimental conditions as reported for N-dichloroacetyl lyso GM₁.
The CD₄ expressed in the absence of the chemical agents during the experiment was 84%.

[2] = target: T1, CD₄; assay: Mean fluorescence intensity of human lymphocytes stained with anti CD4 Mab after incubation with the compound in the presence of serum; set-up: endogenous in cells; host or cells: human lymphocytes; details: for Mean fluorescence intensity (% of positive control): anti CD4 Mab, serum, 37°C, one hour
Experimental: (§1) Human lymphocytes were incubated at various concentrations of the modified ganglioside N-dichloroacetyl lyso GM₁. The cells were stained using monoclonal antibodies (Mab) specific for CD₄, CD₈, CD₃ (T₄, T₈, T₃ Coulter Clone, Coulter Electronics, Hialeah, Florida, USA) and OKT₄ (Ortho Diagnostics, Raritan, New Jersey, USA), these monoclonal antibodies being coupled to fluorescein. By measuring the mean fluorescence intensity (MFI) of the labelled cell population at each concentration of N-dichloroacetyl lyso GM₁, it was possible to quantify how much N-dichloroacetyl lyso GM₁ is necessary to produce 50% inhibition of the fluorescence (I₅₀). The I₅₀ value for […] lymphocytes was 5 µM. The concentration of the composition of N-dichloroacetyl lyso GM₁ at which the fluorescence intensity measurement was 0% was resolved experimentally.
(§2) Specifically, human cells were incubated with saline solution at various concentrations of N-dichloroacetyl lyso GM₁ in the presence of serum at 37°C for one hour. The cells were then washed, incubated with suitable monoclonal antibodies, fixed with 1% formalin and analyzed by MFI after excitation at […] laser length.

[3] = target: T1, CD₄; assay: Percentage of CD4 still expressed in Molt 3 cells after incubation in the presence of BMS serum substitute; set-up: percentage of CD₄ still expressed in the Molt 3 cells after incubation; endogenous in cells; host or cells: Molt 3 cells; details: 60 minutes, 37°C, 89% without agent
Experimental: Molt 3 cells (5x10⁶) were incubated with various concentrations of N-dichloroacetyl lyso GM₁ (from 1 µg/ml to 250 µg/ml) for 60 minutes at 37°C in the presence of BMS (BMS Serum Substitute, Biochrom. Kg. Seromed, Berlin, Germany). After incubation the percentage of CD₄ expressed was shown by a specific Mab for CD₄ (T₄ Coulter Clone, Coulter Electronics, Hialeah, Florida, USA). For a positive control, an experiment-was carried out with monosialoganglioside GM₁ under the same experimental conditions as reported for N-dichloroacetyl lyso GM₁.
Table 2 reports the percentage of CD₄ still expressed in the Molt 3 cells after incubation with different chemical molecules at different concentrations, as described in Example 1. The CD₄ expressed in the absence of the chemical agents during the experiment was 89%.

[4] = test system: CD₃; assay: Mean fluorescence intensity of human lymphocytes stained with anti CD3 Mab after incubation with the compound in the presence of serum; details: 37°C, one hour
Experimental: as §1, §2

Row | Substance | percentage of CD₄ still expressed in the Molt 3 cells ([1]; 1μg/ml, FCS 1%) | percentage of CD₄ still expressed in the Molt 3 cells ([1]; 1μg/ml, FCS 2%) | percentage of CD₄ still expressed in the Molt 3 cells ([1]; 1μg/ml, FCS 5%) | percentage of CD₄ still expressed in the Molt 3 cells ([1]; 25μg/ml, FCS 1%) | percentage of CD₄ still expressed in the Molt 3 cells ([1]; 25μg/ml, FCS 2%) | percentage of CD₄ still expressed in the Molt 3 cells ([1]; 25μg/ml, FCS 5%) | percentage of CD₄ still expressed in the Molt 3 cells ([1]; 75μg/ml, FCS 1%) | percentage of CD₄ still expressed in the Molt 3 cells ([1]; 75μg/ml, FCS 2%) | percentage of CD₄ still expressed in the Molt 3 cells ([1]; 75μg/ml, FCS 5%) | percentage of CD₄ still expressed in the Molt 3 cells ([1]; 125μg/ml, FCS 1%) | percentage of CD₄ still expressed in the Molt 3 cells ([1]; 125μg/ml, FCS 2%) | percentage of CD₄ still expressed in the Molt 3 cells ([1]; 125μg/ml, FCS 5%) | effect of serum concentration on the modulating action on the CD₄ receptor [1] | percentage of CD₄ still expressed in the Molt 3 cells ([3]; 1μg/ml) | percentage of CD₄ still expressed in the Molt 3 cells ([3]; 5μg/ml) | percentage of CD₄ still expressed in the Molt 3 cells ([3]; 25μg/ml) | percentage of CD₄ still expressed in the Molt 3 cells ([3]; 125μg/ml) | further results
1 | N-dichloroacetyl lyso GM₁ [N-dichloroacetyl lyso GM1] | 70% | 73% | 77% | 44% | 55% | 64% | 47% | 50% | 55% | 30% | 49% | 50% | increased serum concentrations do not alter its modulating action on the CD₄ receptor | 75% | 74% | 47% | 13% | Mean fluorescence intensity (% of positive control) ([2]; 2 μg/ml): 100 % of positive control; Mean fluorescence intensity (% of positive control) ([2]; 5 μg/ml): 60 % of positive control; Mean fluorescence intensity (% of positive control) ([2]; 10 μg/ml): 28 % of positive control; Mean fluorescence intensity (% of positive control) ([2]; 25 μg/ml): 0 % of positive control; Mean fluorescence intensity (% of positive control) ([2]; 50 μg/ml): 0 % of positive control; selectivity of modulation, CD₄ receptor versus CD₃ receptor ([2]; conclusion in words from Table 1, 2 to 50 μg/ml): selectively modulates the CD₄ receptor without altering the CD₃ receptor; IC50 ([2]; minor lymphocytes, fluorescein-coupled Mab, MFI, read-out: 50% inhibition of the fluorescence (I₅₀)): 5 µM; Mean fluorescence intensity (% of positive control) ([4]; 2 μg/ml): 100 % of positive control; Mean fluorescence intensity (% of positive control) ([4]; 5 μg/ml, 60 min): 100 % of positive control; Mean fluorescence intensity (% of positive control) ([4]; 10 μg/ml, 60 min): 100 % of positive control; Mean fluorescence intensity (% of positive control) ([4]; 25 μg/ml, 60 min): 100 % of positive control; Mean fluorescence intensity (% of positive control) ([4]; 50 μg/ml): 100 % of positive control
2 | monosialoganglioside GM₁ [GM1, reference compound] | 82% | 84% | 85% | 80% | 83% | 81% | 50% | 80% | 83% | 10% | 25% | 72% | this modulating action disappears in the presence of serum | 88% | 81% | 52% | 0% | 
